In US9669005B2, “Use of naringenin in preparing drugs for preventing and/or treatment abdominal aortic aneurysm” (priority 2013, dated 2017):

Tests used:
Type in all cases: in vivo
[1] = test system: abdominal aortic aneurysms in angiotensin II induced ApoE-/- mice; assay: Abdominal aortic aneurysm model in ApoE-/- mice induced by angiotensin II submerging pump, naringenin gavage; conditions: AngII ApoE-/- mice
Experimental: Firstly, 16 weeks of male ApoE^−/− mice were randomly divided into two groups, control group (n=16) and naringenin group (n=15), respectively. And then they were anesthetized by 0.1% pentobarbital sodium, and mini pumps (model 2004, Alzet, Cupertino, Calif.) were subcutaneously submerged; angiotensin II (Sigma-Aldrich, St. Louis, Mo.) dissolved with normal saline was added to the pump, such that drugs can be continuously administrated for 4 weeks at a dosage of 1000 ng/kg/min. From the first day after surgery, gavage was daily performed to mice at constant time points, water gavage in control group, and naringenin gavage (50 mg/kg) in naringenin group. Materials were removed 28 days after gavage. Blood pressure of the mice was measured by tail cuff method with BP-89A sphygmomanometer (Beijing Softron Biotechnology Co., Ltd.), and the mice were weighted. Blood was drawn in inner canthus of the mice, and after centrifuged for 10 minutes at 6000 rotations, supernatant was removed and the blood fat levels of the mice were measured. […] Aortas of mice were fixed and separated. AngII group was the control group of angiotensin II submerging pump and water gavage. AngII+NGN group was the group of angiotensin II submerging pump and naringenin gavage. Four blood vessels were randomly selected in each group for photographing. The results were shown in FIG. 5A, the former two blood vessels in AngII group have significant bulges at suprarenal site, exceeding 50% of the diameters of the blood vessels at adjacent site, and arterial aneurysms are formed. […] Next, the statistics of the onset of abdominal aortic aneurysms in all the mice was performed. In the control group of angiotensin II submerging pump and water gavage, only one of 16 mice died from the fracture of aortic dissection within the first 7 days after submerging pump, another one died from the fracture of abdominal aortic aneurysms 1 week after submerging pump, abdominal aortic aneurysms were generated in 6 of the remaining 14 mice at 28th day after submerging pump. Therefore, in control group of angiotensin II submerging pump, aortic aneurysms were formed in 8 of 16 mice, that is, the morbidity of aortic aneurysms was 50%. And in the group of angiotensin II submerging pump and naringenin gavage, 1 of 15 mice died from the fracture of aortic aneurysms, only 1 of the remaining mice suffered from abdominal aortic aneurysms at 28 day after submerging pump. Therefore, in the group of angiotensin II submerging pump and naringenin gavage, only two of 15 mice suffered from aortic aneurysms, that is, the morbidity of aortic aneurysms was 13.3%. […] After removing materials from mice, aortas were perfused with 4% paraformaldehyde and fixed, the suprarenal aorta from diaphragm muscle to renal artery branch on the right side was equally divided into two segments, which were put into liquid nitrogen to freeze for 30 s after embedded with OCT. Serial sections were performed, the thickness of each section was 6 μm, with the spacing of 300 μm, and continuous 16 sections were performed on each mouse. H.E. staining was used to determine the diameters of abdominal aortas of mice, the diameters were measured and the maximum diameter was selected therefrom. The maximum diameter was compared with the diameter of adjacent site, and if the maximum diameter exceeds 50% of diameter of the adjacent site, it can be considered that the mouse suffered from an abdominal aortic aneurysm. […] We used Gomori staining to determine the fracture situation of the elastic lamina of abdominal aortas of mice, and statistics was performed. The results were shown in FIG. 6B, the fracture of the elastic lamina of abdominal aortas of mice decreases after naringenin gavage, and the mice detected in each group are all 6 mice. The data in Figure are an average value ±standard deviation.

[2] = test system: inflammatory cell (macrophage and leukocyte) in adventitia; assay: Immunofluorescent staining of inflammatory cells (Mac3, CD45), angiotensin II model; conditions: AngII ApoE-/- mice; naringenin gavage vs water; FIG. 7A
Excerpt: CD45 and Mac3 were results of immunofluorescent staining on […].

[3] = test system: aortic aneurysms in angiotensin II induced ApoE knockout mice; assay: Formed aortic aneurysms, ApoE knockout mice, second round of angiotensin II submerging pump with naringenin gavage
Experimental: In addition, we used the method of angiotensin II subcutaneous submerging pump for 28 days (1,000 ng/kg/min), to induce abdominal aortic aneurysms on 20 weeks of male ApoE knockout mice (totally 40 mice) and used ultrasound to detect the diameters of the abdominal aortas. The diameter greater than 50% of diameter of adjacent blood vessel was used as a standard of the onset of an aortic aneurysm, and 28 mice suffered from aortic aneurysms 28 days later.
Angiotensin II submerging pump was continuously given to all the mice for 28 days. […] In the mice which had suffered from aortic aneurysms previously, 4 mice in the 14 mice by water gavage died from fracture of aortic aneurysms, the other 10 survived mice all suffered from serious aortic aneurysms (the average diameter reaches 3.00±0.58 mm).

metalloproteinase NMP-9 = assay: Gelatin zymography, ApoE knockout mice after second round of angiotensin II; conditions: abdominal aortas, naringenin gavage, FIG. 10D
Experimental: […] Blood vessels were cultured for 24 hours using 0.5 ml serum-free medium with high glucose. After the cultured supernatant protein was quantified, mercaptoethanol-free protein sample loading buffer was added, cryopreserved at −80° C. Water was used to prepare gelatin (Sigma-Aldrich, St. Louis, Mo.) into a concentration of 10 mg/ml, which was added to separation gel of protein electrophoresis according to the proportion of 1:10, causing the final concentration of gelatin as 1 mg/ml. Electrophoresis was performed in a voltage of 80V at 4° C. The gel was put into 0.25% Trixon-100 solution, and washing was performed twice in 30 minutes. And then the gelatin was added to incubation solution (50 mM Tris, 0.2M NaCl, 5 mM CaCl2, 0.02% sodium azide), incubated for 24-48 hours at 37° C. Incubated gel was put into Coomassie brilliant blue to stain for 1-2 hours at room temperature, washed for 30 minutes with a solution having 30% methanol and 10% glacial acetic acid, a solution having 20% methanol and 10% glacial acetic acid, and a solution having 10% methanol and 5% glacial acetic acid, respectively, and then analyzed with Odyssey infrared fluorescence scanning system (LI-COR Biosciences, Lincoln, Nebr.). Both NMP-2 and NMP-9 are gelatinases, and can degrade gelatin; the places where gelatin is degraded are white, and other places are still black. […]

## O=C1C[C@@H](c2ccc(O)cc2)Oc2cc(O)cc(O)c21 [naringenin]
[1]; naringenin 50 mg/kg gavage 28 days, 15 mice, control 50%
  morbidity of aortic aneurysms: 13.3%
[1]; naringenin 50 mg/kg gavage 28 days, FIG. 5A
  formation of abdominal aortic aneurysms (vascular photos): reduce the formation of abdominal aortic aneurysms
[1]; naringenin gavage, 11 mice per group, FIG. 6A
  maximum diameter of suprarenal abdominal aortas (H.E. staining): significantly decreases
[1]; naringenin gavage, FIG. 6B
  fracture of the elastic lamina of abdominal aortas (Gomori staining): decreases
[1]; naringenin gavage, of 15 mice
  Dissection (number of mice): 0
  Fracture (number of mice): 1
  Without aneurysm (number of mice): 13
[1]; naringenin gavage, of 15 mice, 28th day
  aneurysm (number of mice): 1
[2]
  infiltration of inflammatory cell (macrophage and leukocyte) in adventitia: significantly reduce
[3]; ApoE knockout mice with previously formed aneurysms, 14 mice, naringenin gavage, 4 of 14 died in water group
  survival after the second round of angiotensin II: all normally survived
[3]; ApoE knockout mice with previously formed aneurysms, naringenin gavage, second AngII round, water group 3.00±0.58
  maximum diameter of the blood vessels (abdominal aorta, ultrasound): 1.62±0.45 mm
[3]; ApoE knockout mice with previously formed aneurysms, of 14 mice, naringenin gavage, second AngII round 28 days
  number of mice in which aortic aneurysms were observed: 5
[3]; ApoE knockout mice without aneurysm after first AngII round, 6 mice, second AngII round 28 days with naringenin gavage, control 50%
  incidence rate of aortic aneurysms: 16%
Metalloproteinase NMP-9
  activity of metalloproteinase NMP-9 (gelatin zymography): significantly inhibit
